Legend:
[1] = tested on: Human immunodeficiency virus 1; test: Antiviral activity against NNRTI-resistant HIV-1 harboring Y188L mutant infected in human MT4 cells assessed as virus-induced cytopathicity incubated for 5 days by MTT assay; assay type: functional, organism-based; details: Human immunodeficiency virus 1, MT4, 120 h
[2] = Cytotoxicity against human MT4 cells assessed as cell growth inhibition incubated for 5 days by MTT assay; assay type: toxicity, cell-based; details: time 5 day
[3] = Selectivity index, ratio of CC50 for cytotoxicity against human MT4 cells assessed as reduction in cell viability to EC50 for antiviral activity against NNRTI-resistant HIV-1 harboring E138K mutant infected in human MT4 cells; assay type: toxicity, cell-based; details: read-out: Ratio CC50/EC50
[4] = tested on: Human immunodeficiency virus 1; test: Antiviral activity against NNRTI-resistant HIV-1 harboring Y181C mutant infected in human MT4 cells assessed as virus-induced cytopathicity incubated for 5 days by MTT assay; assay type: functional, organism-based; details: Human immunodeficiency virus 1, MT4, 120 h
[5] = tested on: Human immunodeficiency virus 1; test: Antiviral activity against HIV-1 IIIB infected in human MT4 cells assessed as reduction in virus induced cytopathic effect incubated for 5 days by MTT assay; assay type: functional, organism-based; details: Human immunodeficiency virus 1, IIIB, MT4, 120 h
[6] = Selectivity index, ratio of CC50 for cytotoxicity against human MT4 cells assessed as reduction in cell viability to EC50 for antiviral activity against NNRTI-resistant HIV-1 harboring Y188L mutant infected in human MT4 cells; assay type: toxicity, cell-based; details: read-out: Ratio CC50/EC50
[7] = Selectivity index, ratio of CC50 for cytotoxicity against human MT4 cells assessed as reduction in cell viability to EC50 for antiviral activity against NNRTI-resistant HIV-1 harboring F227L/V106A double mutant infected in human MT4 cells; assay type: toxicity, cell-based; details: read-out: Ratio CC50/EC50
[8] = tested on: Human immunodeficiency virus 1; test: Antiviral activity against NNRTI-resistant HIV-1 harboring F227L/V106A double mutant infected in human MT4 cells assessed as virus-induced cytopathicity incubated for 5 days by MTT assay; assay type: functional, organism-based; details: Human immunodeficiency virus 1, MT4, 120 h
[9] = Fold resistance, ratio of EC50 for antiviral activity against NNRTI-resistant HIV-1 harboring K103N mutant infected in human MT4 cells assessed as virus-induced cytopathicity to EC50 for antiviral activity against HIV-1 IIIB infected in human MT4 cells assessed as reduction in virus induced cytopathic effect; assay type: functional
[10] = Selectivity index, ratio of CC50 for cytotoxicity against human MT4 cells assessed as reduction in cell viability to EC50 for antiviral activity against HIV-1 IIIB infected in human MT4 cells assessed as reduction in virus induced cytopathic effect; assay type: toxicity, cell-based; details: read-out: Ratio CC50/EC50
[11] = Fold resistance, ratio of EC50 for antiviral activity against NNRTI-resistant HIV-1 harboring F227L/V106A double mutant infected in human MT4 cells assessed as virus-induced cytopathicity to EC50 for antiviral activity against HIV-1 RES056 infected in human MT4 cells assessed as reduction in virus induced cytopathic effect; assay type: functional
[12] = Selectivity index, ratio of CC50 for cytotoxicity against human MT4 cells assessed as reduction in cell viability to EC50 for antiviral activity against NNRTI-resistant HIV-1 harboring L100I mutant infected in human MT4 cells; assay type: toxicity, cell-based; details: read-out: Ratio CC50/EC50
[13] = Selectivity index, ratio of CC50 for cytotoxicity against human MT4 cells assessed as reduction in cell viability to EC50 for antiviral activity against HIV-1 RES056 infected in human MT4 cells assessed as reduction in virus induced cytopathic effect; assay type: toxicity, cell-based; details: read-out: Ratio CC50/EC50
[14] = Selectivity index, ratio of CC50 for cytotoxicity against human MT4 cells assessed as reduction in cell viability to EC50 for antiviral activity against NNRTI-resistant HIV-1 harboring K103N mutant infected in human MT4 cells; assay type: toxicity, cell-based; details: read-out: Ratio CC50/EC50
[15] = Fold resistance, ratio of EC50 for antiviral activity against NNRTI-resistant HIV-1 harboring L100I mutant infected in human MT4 cells assessed as virus-induced cytopathicity to EC50 for antiviral activity against HIV-1 IIIB infected in human MT4 cells assessed as reduction in virus induced cytopathic effect; assay type: functional
[16] = tested on: Human immunodeficiency virus 1; test: Antiviral activity against HIV-1 RES056 infected in human MT4 cells assessed as reduction in virus induced cytopathic effect incubated for 5 days by MTT assay; assay type: functional, organism-based; details: Human immunodeficiency virus 1, RES056, MT4, 120 h
[17] = tested on: Human immunodeficiency virus 1; test: Antiviral activity against NNRTI-resistant HIV-1 harboring L100I mutant infected in human MT4 cells assessed as virus-induced cytopathicity incubated for 5 days by MTT assay; assay type: functional, organism-based; details: Human immunodeficiency virus 1, MT4, 120 h
[18] = tested on: Human immunodeficiency virus 1; test: Antiviral activity against NNRTI-resistant HIV-1 harboring E138K mutant infected in human MT4 cells assessed as virus-induced cytopathicity incubated for 5 days by MTT assay; assay type: functional, organism-based; details: Human immunodeficiency virus 1, MT4, 120 h
[19] = tested on: Human immunodeficiency virus 1; test: Antiviral activity against NNRTI-resistant HIV-1 harboring K103N mutant infected in human MT4 cells assessed as virus-induced cytopathicity incubated for 5 days by MTT assay; assay type: functional, organism-based; details: Human immunodeficiency virus 1, MT4, 120 h
[20] = Fold resistance, ratio of EC50 for antiviral activity against NNRTI-resistant HIV-1 harboring E138K mutant infected in human MT4 cells assessed as virus-induced cytopathicity to EC50 for antiviral activity against HIV-1 IIIB infected in human MT4 cells assessed as reduction in virus induced cytopathic effect; assay type: functional
[21] = Selectivity index, ratio of CC50 for cytotoxicity against human MT4 cells assessed as reduction in cell viability to EC50 for antiviral activity against NNRTI-resistant HIV-1 harboring Y181C mutant infected in human MT4 cells; assay type: toxicity, cell-based; details: read-out: Ratio CC50/EC50
[22] = Fold resistance, ratio of EC50 for antiviral activity against NNRTI-resistant HIV-1 harboring F227L/V106A double mutant infected in human MT4 cells assessed as virus-induced cytopathicity to EC50 for antiviral activity against HIV-1 IIIB infected in human MT4 cells assessed as reduction in virus induced cytopathic effect; assay type: functional
[23] = target: Human immunodeficiency virus type 1 reverse transcriptase (Human immunodeficiency virus 1, UniProt Q72547); test: Inhibition of wild type HIV-1 reverse transcriptase assessed as reduction of biotin-dUTP incorporation into […] using ABTS as substrate incubated for 1 hrs by ELISA analysis
[24] = Fold resistance, ratio of EC50 for antiviral activity against NNRTI-resistant HIV-1 harboring Y188L mutant infected in human MT4 cells assessed as virus-induced cytopathicity to EC50 for antiviral activity against HIV-1 IIIB infected in human MT4 cells assessed as reduction in virus induced cytopathic effect; assay type: functional
[25] = Fold resistance, ratio of EC50 for antiviral activity against NNRTI-resistant HIV-1 harboring Y181C mutant infected in human MT4 cells assessed as virus-induced cytopathicity to EC50 for antiviral activity against HIV-1 IIIB infected in human MT4 cells assessed as reduction in virus induced cytopathic effect; assay type: functional

## Cc1cc(C#N)cc(C)c1Oc1nc(Nc2ccc(C#N)cc2)ncc1C(N)=O
[1]
  EC50: 0.193 µM
[2]
  CC50 at 120 h: 32.2 µM
[3]
  selectivity ratio: 459
[4]
  EC50: 0.395 µM
[5]
  EC50: 0.011 µM
[6]
  selectivity ratio: 167
[7]
  selectivity ratio: 13
[8]
  EC50: 2.55 µM
[9]
  Ratio EC50: 4.3
[10]
  selectivity ratio: 2820
[11]
  Ratio EC50: 785.5
[12]
  selectivity ratio: 192
[13]
  selectivity ratio: 4
[14]
  selectivity ratio: 650
[15]
  Ratio EC50: 14.7
[16]
  EC50: 8.96 µM
[17]
  EC50: 0.168 µM
[18]
  EC50: 0.07 µM
[19]
  EC50: 0.05 µM
[20]
  Ratio EC50: 6.2
[21]
  selectivity ratio: 82
[22]
  Ratio EC50: 223.3
[23]
  IC50: 0.196 µM
[24]
  Ratio EC50: 16.9
[25]
  Ratio EC50: 34.6

Reference: ChEMBL document CHEMBL5331067, “Disubstituted pyrimidine-5-carboxamide derivatives as novel HIV-1 NNRTIs: Crystallographic overlay-based molecular design, synthesis, and biological evaluation” (Eur J Med Chem, 2023)
